# According to PMC12441774, “Proteolytic stabilization of a spider venom peptide results in an orally active bioinsecticide” (Pest Management Science, 2025):
# Bridges are numbered along the chain shown (N, C = ends). Where no end group is shown, it is not given here.
# How the values were obtained:
# Musca domestica = test: Insecticidal activity by injection into adult house flies; type: in vivo; details: adult house flies 12–18 mg, 0.5 μL into dorsal thorax, mortality 24 h post‐injection, 10 flies per treatment, at least triplicate, four‐parameter sigmoidal fit
# Method: Adult house flies (Musca domestica L.) were immobilized with CO2 gas and those with an average weight of 12–18 mg were selected for injection. Purified solutions of Ta1b and variants were diluted in water and injected into the dorsal thorax with a 1‐cc syringe and 30‐gauge needle using a hand microapplicator (Burkard, Rickmansworth, England). Each adult was injected with 0.5 μL of solution with 10 flies per treatment in at least triplicate. Water was used as a negative control. Flies were placed into a container with moist filter paper and scored for mortality 24 h post‐injection. Ten non‐injected flies were placed in a container to assess CO2 mortality. Response curves were fitted with a four‐parameter sigmoidal function (GraphPad Prism, Boston, MA) to determine LD50 values.
# (§1) To compare the potency of Ta1b, we also injected the following active ingredients into M. domestica and H. zea: GS‐ω/κ (Spear, Vestaron), spinosad (Monterey Garden Insect Spray, Monterey), thiamethoxam (Optigard® Flex, Syngenta), and chlorantraniliprole (ALTACOR®, FMC).
# Helicoverpa zea = test: Insecticidal activity by injection into fourth instar larvae; type: in vivo; details: fourth instar larvae, 1 μL into penultimate proleg, mortality 24 h after injection, eight larvae per treatment, at least triplicate
# Method: Helicoverpa zea (Boddie, 1850) larvae were reared from eggs (Benzon, Carlisle, PA) to fourth instar on general purpose lepidopteran diet (F9772, Frontier Agricultural Sciences, Newark, DE). Pre‐weighed larvae immobilized on ice were injected into their penultimate proleg as described for M. domestica with 1 μL solution and eight larvae per treatment in at least triplicate. After injection, larvae were placed in a well of a 32‐well tray filled with 5 mL lepidopteran diet. The trays were then placed in an incubator at 28° C with 16:8 h light: dark cycle and evaluated 24 h after injection for mortality.
# as §1
# [1] = Gut enzyme digestion, M. sexta gut extract; type: in vitro ADME, Manduca sexta; details: for Fold stability improvement over Ta1b: gut extract stability testing, limit of testing 50‐fold; for half-life: M. sexta fifth instar gut extract diluted 10× in 30 mM Tris–HCl pH 8.8, 0.5–1 mg mL^−1 peptide, HPLC, single exponential decay fit, read-out: Degradation half life, Gut extract; for Degradation half time ratio to Ta1b, Gut extract: ratio of half lives in M. sexta gut extract
# Method: (§2) Larvae of H. zea, Spodoptera frugiperda Smith and Abbot, 1797, and Trichoplusia ni Hubner, 1802 were purchased from Benzon Research and reared to fifth instar on general purpose lepidopteran diet. Manduca sexta L. were purchased from Carolina Biological Supply (Burlington, NC) and reared to fifth instar on the supplied diet. Larvae were anesthetized on ice for 30 min, pinned on a dissection plate, and opened laterally with microdissection scissors. The foregut, midgut and hindgut were excised and washed using sterile water to remove any excess hemolymph and then transferred into a chilled 2‐mL microcentrifuge tube. The extracts were spun in a microcentrifuge at 10000 g to pellet the solids. The liquid fractions were carefully removed, sterile filtered, and stored at −80°C for future use.
# (§3) For gut enzyme digestion studies, gut extract was diluted 10× with the dilution buffer (30 mM Tris–HCl, pH 8.8) and 0.5–1 mg mL^−1 of Ta1b. Samples were taken from the digestion mixture at defined timepoints and mixed with a 1:6 ratio of stop buffer (Tris–HCl pH 1–2) to halt further digest of the peptide. Samples were sterile filtered and analyzed by HPLC to determine peptide integrity and concentration.
# H. zea neonates = test: Insecticidal activity by foliar spray (lettuce leaf disk feeding); type: in vivo, Helicoverpa zea
# Method: Organic romaine lettuce was cut into 30‐mm diameter disks and sterilized with a 140‐ppm bleach solution followed by a triple rinse in water. The lettuce disks were then sprayed on either side using a Potter Tower Sprayer (Burkard, Rickmansworth, England) with insecticidal solutions, allowing them to dry between sprays. Once fully sprayed and dried, disks were placed into an arena, which was a 32‐well rearing tray containing 5 mL of 1% w/v agar. One leaf disk was placed in each well and a single neonate H. zea was applied to each of the 12 leaf discs per treatment with four experimental replicates per treatment. The trays were then placed in a 28° C incubator with a 16:8 h light: dark cycle. Mortality was evaluated 4 days after application.
# [2] = Gut enzyme digestion, stated jointly for three lepidopteran gut extracts; type: in vitro ADME, H. zea, S. frugiperda, T. ni; details: 10‐fold diluted gut extract, single exponential decay, followed up to 21 h
# Method: as §2, §3
# [3] = Gut enzyme digestion, H. zea gut extract; type: in vitro ADME, Helicoverpa zea; details: extract diluted ten-fold, single exponential decay fit, HPLC
# Method: as §2, §3
# [4] = Gut enzyme digestion, S. frugiperda gut extract; type: in vitro ADME, Spodoptera frugiperda; details: extract diluted ten-fold, single exponential decay fit, HPLC
# Method: as §2, §3
# [5] = Gut enzyme digestion, T. ni gut extract; type: in vitro ADME, Trichoplusia ni; details: extract diluted ten-fold, single exponential decay fit, HPLC
# Method: as §2, §3
# [6] = Protease stability, commercial trypsin digestion; type: in vitro ADME, bovine; details: bovine trypsin 1 mg mL^−1 in 50 mM Tris–HCl pH 8.8, 100 mM NaCl; 5 μL added to 200 μL of 10.7 mg mL^−1 peptide; room temperature; HPLC; read-out: Degradation half life, Trypsin
# Method: (§4) For commercial enzyme digestion studies, bovine trypsin (Sigma‐Aldrich, St. Louis, MO) was prepared at a concentration of 1 mg mL^−1 in 50 mM Tris–HCl pH 8.8, 100 mM NaCl. Bovine chymotrypsin (Sigma‐Aldrich) was prepared at a concentration of 1 mg ml^−1 in 50 mM MES pH 6.0, 100 mM NaCl. For each digestion condition, 5 μL of trypsin or chymotrypsin solution were added to 200 μL of 10.7 mg mL^−1 peptide and incubated at room temperature. Samples were taken at defined timepoints, sterile filtered, and analyzed immediately by HPLC.
# bovine trypsin = molecular target: T1, bovine trypsin (Bos taurus, UniProt P00760); test: Protease stability, commercial trypsin digestion; type: in vitro ADME; details: for Degradation half time ratio to Ta1b, Trypsin: ratio of half lives with bovine trypsin
# T1 construct: purchased Sigma-Aldrich
# T1 sequence (P00760 24-246): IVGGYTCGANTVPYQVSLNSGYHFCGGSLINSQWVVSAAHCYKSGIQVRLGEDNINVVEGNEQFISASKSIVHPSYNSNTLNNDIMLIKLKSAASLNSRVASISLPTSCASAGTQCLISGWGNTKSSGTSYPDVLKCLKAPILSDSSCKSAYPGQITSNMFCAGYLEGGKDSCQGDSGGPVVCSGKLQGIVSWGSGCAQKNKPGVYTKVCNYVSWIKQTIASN
# Method: as §4
compound,measurement,setting,value
"CNC(=O)c1cc(Cl)cc(C)c1NC(=O)c1cc(Br)nn1-c1ncccc1Cl [Chlorantraniliprole, chlorantraniliprole]","Insecticidal LD50, injection, M. domestica (95% CI)",Musca domestica,no activity
same,"Insecticidal LD50, injection, H. zea (95% CI)",Helicoverpa zea,0.22 (0.15–0.37) nmol g^−1
"EPDEICRNRMTNKEFTYKSNVCNNCGDQVAACEAECFRNDVYTACHEAQKG (disulfide 6-36, 22-32, 25-45) [Mutant A8N]",Fold stability improvement over Ta1b,[1],1.8
"EPDEICRARMPNKEFTYKSNVCNNCGDQVAACEAECFRNDVYTACHEAQKG (disulfide 6-36, 22-32, 25-45) [Mutant T11P]",Fold stability improvement over Ta1b,[1],>50
"EPDEICRAHMTNKEFTYKSNVCNNCGDQVAACEAECFRNDVYTACHEAQKG (disulfide 6-36, 22-32, 25-45) [Mutant R9H]",Fold stability improvement over Ta1b,[1],16.2
"EPDEICRANMTNKEFTYKSNVCNNCGDQVAACEAECFRNDVYTACHEAQKG (disulfide 6-36, 22-32, 25-45) [Mutant R9N]",Fold stability improvement over Ta1b,[1],>50
"GSQYCVPVDQPCSLNTQPCCDDATCTQERNENGHTVYYCRA (disulfide 5-20, 12-25, 19-39) [GS‐ω/κ, reference compound]","Insecticidal LD50, injection, M. domestica (95% CI)",Musca domestica,0.19 (0.17–0.21) nmol g^−1
same,"Day 4 mortality of H. zea on treated lettuce leaves, peptide alone","H. zea neonates; 100 μg cm^−2, neonates, compared to untreated",significant activity on its own
same,"Day 4 mortality of H. zea on treated lettuce leaves, peptide in combination with Btk","H. zea neonates; 100 μg cm^−2 peptide with sublethal Btk 0.17 μg cm^−2, neonates",activity is increased
same,"Insecticidal LD50, injection, H. zea (95% CI)",Helicoverpa zea,5.9 (4.9–6.9) nmol g^−1
same,Degradation when incubated with gut extract (HPLC),"[1]; M. sexta gut extract, HPLC peak",did not show any degradation
"EPDEICRAQMTNKEFTYKSNVCNNCGDQVAACEAECFRNDVYTACHEAQKG (disulfide 6-36, 22-32, 25-45) [Mutant R9Q]","Degradation half‐lives in gut extracts from H. zea, S. frugiperda, and T. ni",[2],too little degradation to calculate half‐lives even after 21 h
same,Degradation half-life in H. zea gut extract,[3],could not be fit to an exponential decay
same,Degradation half-life in S. frugiperda gut extract,[4],could not be fit to an exponential decay
same,Degradation half-life in T. ni gut extract,[5],could not be fit to an exponential decay
same,Fold stability improvement over Ta1b,[1],>50
"EPDEICRSRMTNKEFTYKSNVCNNCGDQVAACEAECFRNDVYTACHEAQKG (disulfide 6-36, 22-32, 25-45) [Mutant A8S]",Fold stability improvement over Ta1b,[1],12.1
"CN1COCN(Cc2cnc(Cl)s2)/C1=N\[N+](=O)[O-] [Thiamethoxam, thiamethoxam]","Insecticidal LD50, injection, M. domestica (95% CI)",Musca domestica,23.2 (18.1–29.6) nmol g^−1
same,"Insecticidal LD50, injection, H. zea (95% CI)",Helicoverpa zea,31.9 (20.2–52.1) nmol g^−1
"EPDEICAARMTNKEFTYKSNVCNNCGDQVAACEAECFRNDVYTACHEAQKG (disulfide 6-36, 22-32, 25-45) [Mutant R7A]",half-life at 10.4 mg mL^-1,[6],2.2 h
same,"Degradation half time ratio to Ta1b, Trypsin",bovine trypsin,0.5
"EPDEICRARMTNKEFTYASNVCNNCGDQVAACEAECFRNDVYTACHEAQKG (disulfide 6-36, 22-32, 25-45) [Mutant K18A]",half-life at 10.4 mg mL^-1,[6],19.9 h
same,"Degradation half time ratio to Ta1b, Trypsin",bovine trypsin,4.1
"EPDEICRAAMTNKEFTYKSNVCNNCGDQVAACEAECFRNDVYTACHEAQKG (disulfide 6-36, 22-32, 25-45) [Mutant R9A]",half-life at 10.4 mg mL^-1,[6],> 100 h
same,Digestion by bovine trypsin (HPLC),"bovine trypsin; pH 8.8, room temperature, HPLC chromatogram",complete abrogation of Ta1b digestion
same,"Degradation half time ratio to Ta1b, Trypsin",bovine trypsin,>20
same,half-life,[1],4.97 h
same,"Degradation half time ratio to Ta1b, Gut extract",[1],213
"H-ICRAQMTNKEFTYKSNVCNNCGDQVAACEAECFRNDVYAACHEAQKG-OH (disulfide 2-32, 18-28, 21-41)",Reduction in melting temperature vs Ta1b-QA,,14.2 °C
"EPDEICRARMTNAEFTYKSNVCNNCGDQVAACEAECFRNDVYTACHEAQKG (disulfide 6-36, 22-32, 25-45) [Mutant K13A]",half-life at 10.4 mg mL^-1,[6],4.9 h
same,"Degradation half time ratio to Ta1b, Trypsin",bovine trypsin,1.0
"EPDEICRARMTNKEFTYKSNVCNNCGDQVAACEAECFANDVYTACHEAQKG (disulfide 6-36, 22-32, 25-45) [Mutant R38A]",half-life at 10.4 mg mL^-1,[6],31 h
same,"Degradation half time ratio to Ta1b, Trypsin",bovine trypsin,6.5
same,half-life,[1],0.215 h
same,"Degradation half time ratio to Ta1b, Gut extract",[1],9.2
